Results as given in patent publication US10738041B2, “Ferroportin inhibitors” (Vifor (International) AG, priority 2015, dated 2020).
Read-outs that look alike come from different tables or passages of the source.

Assays:
ferroportin (Fpn) = biological target: T1, ferroportin (Fpn) (Mus musculus, UniProt Q9JHI9); assay: Hepcidin Internalization Assay (J774); format: cell-based; conditions: average of multiple measurements; inhibition of TMR-hepcidin (25 nM) internalization into J774 cells; read-out: J774 IC50
T1 construct: host or cells: J774 mouse macrophage cell line, Fe(III)-NTA induced
T1 sequence (Q9JHI9 1-570): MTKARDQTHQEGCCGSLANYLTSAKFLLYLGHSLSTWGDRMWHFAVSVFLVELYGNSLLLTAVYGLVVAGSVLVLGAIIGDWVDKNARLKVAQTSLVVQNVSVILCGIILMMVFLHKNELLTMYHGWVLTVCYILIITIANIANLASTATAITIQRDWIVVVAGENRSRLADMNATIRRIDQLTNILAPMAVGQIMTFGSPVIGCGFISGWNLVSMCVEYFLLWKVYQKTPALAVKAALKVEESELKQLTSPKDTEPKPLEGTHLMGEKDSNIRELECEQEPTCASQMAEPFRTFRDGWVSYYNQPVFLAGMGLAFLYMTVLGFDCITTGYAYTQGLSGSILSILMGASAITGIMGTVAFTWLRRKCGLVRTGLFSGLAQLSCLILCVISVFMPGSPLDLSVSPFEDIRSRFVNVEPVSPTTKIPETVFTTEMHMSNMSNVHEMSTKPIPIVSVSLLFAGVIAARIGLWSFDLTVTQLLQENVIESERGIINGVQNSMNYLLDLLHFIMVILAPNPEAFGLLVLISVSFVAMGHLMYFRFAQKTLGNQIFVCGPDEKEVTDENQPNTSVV
Summary of the method: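 Inhibition of fluorescent TMR-hepcidin uptake via ferroportin was imaged in fixed J774 cells after a 2 h, 37 °C co-incubation with compound dilutions; cells were pre-cultured overnight with 200 μM Fe(III)NTA. Internalized TMR signal per cell (Sum(Mean)) was fitted as log(inhibitor) vs. response for IC50, in triplicate.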

naïve WT C57BL/6 mice = assay: Hypoferremia in naïve mice; format: in vivo, mouse; conditions: Mus musculus, po, 3 h, read-out: Serum Iron Reduction at 3 h (%)
Method: Female C57BL/6 mice (Janvier, France) at age of 9 weeks were fed a standard diet (Harlan Provimi Kliba 3436) and treated per os (p.o.) with compounds or the corresponding amount of vehicle at a volume of 10 ml/kg body weight. Fpn inhibitors were formulated in 0.5% methylcellulose/water or 20% cremophor EL/water and dosed p.o. in mice at 10, 30 or 100 mg/kg body weight. Three hours later, mice were pre terminally anesthetized in isoflurane chambers and blood was collected by retro-orbital bleeding. Mice were sacrificed by cervical dislocation and spleens, livers and duodena were harvested and used for biomarker analysis. All experiments have been conducted in compliance with the license approved by the responsible veterinarian authorities. Serum was isolated by centrifugation of blood into gel-containing microtainers and serum iron was determined by the MULTIGENT Iron assay (Abbott Diagnostics, 6K95). Eight mice per group were used and one-way ANOVA with Bonferroni's multiple comparison test was performed to analyze the statistical differences between the experimental groups.

human Fpn = biological target: T2, human Fpn (Homo sapiens, UniProt Q9NP59); assay: Biophysical Ferroportin-Hepcidin Binding Assay (fluorescence polarization); conditions: average of multiple measurements; 1 μM human Fpn, 20 nM TMR-hepcidin; read-out: FP IC50
T2 construct: FLAG (C); made in house; host or cells: Pichia pastoris
T2 sequence (Q9NP59 1-571): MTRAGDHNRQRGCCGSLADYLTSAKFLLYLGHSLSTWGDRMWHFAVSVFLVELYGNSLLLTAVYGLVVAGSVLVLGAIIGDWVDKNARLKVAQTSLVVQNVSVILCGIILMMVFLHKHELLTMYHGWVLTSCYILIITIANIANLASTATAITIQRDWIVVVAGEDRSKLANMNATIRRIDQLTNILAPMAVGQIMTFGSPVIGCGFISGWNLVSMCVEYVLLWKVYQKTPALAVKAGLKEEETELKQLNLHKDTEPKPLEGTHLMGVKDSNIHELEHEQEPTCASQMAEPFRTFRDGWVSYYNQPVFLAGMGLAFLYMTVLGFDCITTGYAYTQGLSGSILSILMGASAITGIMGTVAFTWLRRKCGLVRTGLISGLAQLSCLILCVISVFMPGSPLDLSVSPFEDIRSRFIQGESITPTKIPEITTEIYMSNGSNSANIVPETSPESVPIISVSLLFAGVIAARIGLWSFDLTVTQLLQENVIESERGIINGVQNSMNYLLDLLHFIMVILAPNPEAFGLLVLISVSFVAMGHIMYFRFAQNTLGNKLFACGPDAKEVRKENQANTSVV
Summary of the method: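 FP readout: a dose-dependent drop in TMR-hepcidin polarization (mP, from parallel and perpendicular emission) marked blocked binding to FLAG-tagged human Fpn purified from Pichia pastoris. Final levels were 1 μM Fpn and 20 nM TMR-hepcidin, with compound dilutions in duplicate, incubated 90 min at room temperature.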

human Fpn-GFP fusion = biological target: T3, human Fpn-GFP fusion (Homo sapiens, UniProt Q9NP59); assay: Inhibition of ferroportin mediated iron export activity in an iron response assay (BLAzer); format: cell-based; conditions: average of multiple measurements; HEK-293 cell line #354; read-out: BLAzer EC50
T3 construct: expressed in transfected cells; host or cells: HEK-293 cell line #354 (derivative of HEK-293 Tet-ON Advanced, Clontech)
T3 sequence (Q9NP59 1-571): T2 sequence (Q9NP59 1-571)
Text: Intracellular iron levels are indirectly measured in this assay by monitoring the activity of a beta-lactamase (BLA) reporter gene fused to the human ferritin promoter and the associated iron regulatory element (IRE) contained within the 5′ untranslated region of the ferritin mRNA. Expression of ferroportin (Fpn) in such a cell line leads to iron efflux and lower iron levels as reflected by lower activity of the reporter gene. On the other hand, inhibition of Fpn-mediated iron efflux results in elevated cellular iron levels which is detected as increased reporter gene activity. Small molecular weight Fpn inhibitor compounds were tested for dose-dependent effects in this in vitro iron response assay as described below.
The HEK-293 cell line #354 was generated by stable integration of (i) a human Fpn-GFP fusion construct inserted in a derivative of the doxycycline-inducible pTRE-Tight-BI plasmid (Clontech, Cat. 631068) and (ii) a human ferritin promoter-BLA reporter gene into a derivative of the HEK-293 Tet-ON Advanced cell line (Clontech). […] After overnight incubation, 10 μl/well of dilution series of the test compounds were added in quadruplicates and plates were further incubated overnight at 37° C. with 5% CQ. Cells were washed 3 times with HBSS leaving 25 μl per well. BLA activity was detected by adding 5 μl/well of the GeneBlazer reagent CCF4-AM (Invitrogen, Cat. K1085) to the cells. After incubation of the plates in the dark at 18° C. for 60 min., blue and green fluorescence signals were measured in a Safre2 fluorescence plate reader (Tecan) with excitation at 410 nm and emissions at 458 nm (blue) and 522 nm (green). The ratio of blue/green fluorescence as a measure for BLA activity was calculated and EC50 values were determined with the calculated blue/green fluorescence ratios as described for the hepcidin internalization assay.

[1] = Dose 10 mg/kg p.o., naïve WT C57BL/6 mice, relative to vehicle
[2] = Dose 30 mg/kg p.o., naïve WT C57BL/6 mice, relative to vehicle
[3] = Dose 100 mg/kg p.o., naïve WT C57BL/6 mice, relative to vehicle

| Structure (SMILES) | IC50 (ferroportin (Fpn)) | inhibition in vivo at 10 mg/kg (naïve WT C57BL/6 mice; [1]) | inhibition in vivo at 30 mg/kg (naïve WT C57BL/6 mice; [2]) | inhibition in vivo at 100 mg/kg (naïve WT C57BL/6 mice; [3]) | IC50 (human Fpn) | EC50 (human Fpn-GFP fusion) | inhibition in vivo at 10 mg/kg (naïve WT C57BL/6 mice) | inhibition in vivo at 30 mg/kg (naïve WT C57BL/6 mice) | inhibition in vivo at 100 mg/kg (naïve WT C57BL/6 mice) |
| --- | --- | --- | --- | --- | --- | --- | --- | --- | --- |
| O=C(NCc1ncccc1Cl)c1nc(CCNCc2nc3ccccc3[nH]2)sc1Cl [Example 159] | 91 nM | 4% | 26% | 60% | – | – | – | – | – |
| O=C(NCc1ncccc1F)c1csc(C2CN(CCc3nc4ccccc4[nH]3)C2)n1 [Example 193] | 287 nM | 13% | 11% | 31% | – | – | – | – | – |
| O=C(NCc1ccccn1)c1coc(CCNCCc2nc3ccccc3[nH]2)n1 [Example 171] | 26 nM | 10% | 42% | 61% | – | – | – | – | – |
| O=C(NCc1ncccc1F)c1cncc(C2CN(CCc3nc4c(F)cccc4[nH]3)C2)c1 [compound 248] | 363 nM | – | – | – | 306 nM | 6340 nM | – | – | – |
| O=C(NCc1ccccn1)c1csc(CCNCCc2nc3ccccc3[nH]2)n1 [Example 58] | 10 nM | 20% | 30% | 40% | – | – | – | – | – |
| O=C(NCc1ncccc1F)N1CCCC(CCNCCc2nc3ccccc3[nH]2)C1 (centres unmarked) [compound 200] | 3140 nM | – | – | – | 5650 nM | 45100 nM | – | – | – |
| COc1cccnc1CNC(=O)c1csc(CCNCc2nc3ccccc3[nH]2)n1 [Example 59] | 50 nM | – | – | – | 270 nM | 1380 nM | – | – | – |
| Cn1ccc(CNC(=O)c2csc(CCNCc3nc4ccccc4[nH]3)n2)n1 [Example 86] | 480 nM | – | – | – | 4960 nM | 22300 nM | – | – | – |
| O=C(NCC1CCCCC1)c1csc(CCNCc2nc3ccccc3[nH]2)n1 [Example 13] | 1700 nM | – | – | – | 530 nM | 27000 nM | – | – | – |
| O=C(NCc1ncccc1F)c1cncc(CCNCCc2nc3cc(F)ccc3[nH]2)c1 [compound 245] | 188 nM | – | – | – | 295 nM | 6140 nM | – | – | – |
| O=C(NCc1ncc(F)cc1F)c1csc(CCNCc2nc3ccccc3[nH]2)n1 [Example 108] | 130 nM | – | – | – | 478 nM | 4120 nM | – | – | – |
| Cc1cc(CNC(=O)c2csc(CCNCc3nc4ccccc4[nH]3)n2)ccn1 [Example 99] | 2990 nM | – | – | – | 4330 nM | 22800 nM | – | – | – |
| O=C(NCc1ncccc1F)c1cn(CCNCCc2nc3ccccc3[nH]2)nn1 [compound 277] | – | – | – | – | – | – | 6% | 21% | 54% |
| Cn1ccnc1CNC(=O)c1csc(CCNCc2nc3ccccc3[nH]2)n1 [Example 64] | 130 nM | – | – | – | 1240 nM | 4530 nM | – | – | – |
| N#Cc1ccccc1CNC(=O)c1csc(CCNCc2nc3ccccc3[nH]2)n1 [Example 71] | 240 nM | – | – | – | 508 nM | 1790 nM | – | – | – |
| O=C(NCc1ncccc1Cl)c1ncn(CCNCc2nc3ccccc3[nH]2)n1 [Example 170] | 482 nM | – | – | – | 280 nM | 3960 nM | – | – | – |
| O=C(NCc1ncco1)c1csc(CCNCc2nc3ccccc3[nH]2)n1 [Example 85] | 29 nM | – | – | – | 1870 nM | 18700 nM | – | – | – |
| O=C(NCc1ncccc1F)c1cc(CCNCc2nc3ccccc3[nH]2)ccn1 [compound 232] | 1900 nM | – | – | – | 267 nM | 12000 nM | – | – | – |
| O=C(NCc1ncccn1)c1csc(CCNCc2nc3ccccc3[nH]2)n1 [Example 61] | 560 nM | – | – | – | 1690 nM | 37500 nM | – | – | – |
| Cc1ccc(CNC(=O)c2csc(CCNCc3nc4ccccc4[nH]3)n2)nc1 [Example 97] | 270 nM | – | – | – | 2130 nM | 1810 nM | – | – | – |
| O=C(NCc1ccc(F)cn1)c1csc(CCNCc2nc3ccccc3[nH]2)n1 [Example 43] | 250 nM | – | – | – | 1520 nM | 31000 nM | – | – | – |
| O=C(NCc1ccccc1)c1csc(CCNCc2ccncn2)n1 [Example 27] | 38400 nM | 20% | 30% | 45% | – | – | – | – | – |
